Data on six molecules can be found in US7732618B2, “Benzimidazole acetic acids exhibiting CRTH2 receptor antagonism and uses thereof” (Wyeth, priority 2004, dated 2010).

Experiment [1] addresses T1, human CRTH2 (Homo sapiens, UniProt Q9Y5Y4).
T1 sequence (Q9Y5Y4 1-395): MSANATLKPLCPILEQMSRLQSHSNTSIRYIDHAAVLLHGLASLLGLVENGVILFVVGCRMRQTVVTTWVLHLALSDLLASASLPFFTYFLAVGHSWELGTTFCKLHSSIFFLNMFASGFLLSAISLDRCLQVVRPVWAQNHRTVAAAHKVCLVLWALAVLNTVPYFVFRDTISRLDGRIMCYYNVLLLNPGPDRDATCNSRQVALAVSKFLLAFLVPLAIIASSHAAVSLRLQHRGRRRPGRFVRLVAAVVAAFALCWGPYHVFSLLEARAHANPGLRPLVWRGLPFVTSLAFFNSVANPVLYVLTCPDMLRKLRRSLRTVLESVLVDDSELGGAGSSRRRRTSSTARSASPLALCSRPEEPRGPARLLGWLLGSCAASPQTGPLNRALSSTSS
As to the kind of experiment: CRTH-2 binding assay (scintillation proximity assay, inhibition of 3H-PGD2 binding). More on the design: expressed in transfected cells; host or cells: 293EBNA-hCRTH2 cells (membrane preparation). To be noted: membranes from 293EBNA-hCRTH2 cells, 3H-PGD2 3.6 nM; Ki calculated from IC50.

Experiment [2] concerns the target T1, human CRTH2. As to the kind of experiment: CRTH2 fluorescent imaging assay (intracellular calcium). To be noted: for IC50: antagonism of PGD2-induced calcium increase, HEK 293EBNA-hCRTH2 or HT1080-hCRTH2 cells, read-out: RAGE hCRTH2 IC50; for approximate EC75 for PGD2: calcium response. Details: expressed in transfected cells; host or cells: HEK 293EBNA-hCRTH2 cells or HT1080-hCRTH2 cells. It counts as cell-based. The procedure:
The ability of the disclosed compounds to act as agonists for the hCRTH2 receptor was determined by their ability to cause increases in intracellular calcium via binding to the CRTH2 receptor.
Assays were performed on HEK 293EBNA-hCRTH2 cells that had been grown in DMEM media containing 10% FBS, […] puromycin and 1% penicillin/streptomycin/glutamine (PSG) at 37° C. in 5% CO2 or on HT1080-hCRTH2 cells (a HT1080 cell line stably expressing human CRTH2) that had been grown in alphaMEM media containing 10% FBS, 500 μg/ml hygromycin, 200 nM methotrexate and 1% PSG at 37° C. in 5% CO2.
For the assay, HEK 293EBNA-hCRTH2 cells or HT1080-hCRTH2 cells were grown to approximately 90% confluency and then dislodged from the plate with Trypsin-EDTA, resuspended in DMEM media, seeded in 384 well plates at 2×10^4 cells per well and incubated overnight at 37° C. The cells were loaded with a calcium sensing dye by removing the growth media and replacing it with 30 μL of dye loading Ringer's buffer (136 mM […], 5.4 mM D-Glucose, 20 mM Hepes pH 7.4, 2.1 mM MgCl2, 0.8 mM CaCl2, 0.2% BSA with 1× Calcium3Dye (Molecular Devices) and 2.5 mM Probenecid (Sigma)) per well. The cells were incubated at 37° C. for 1 hour to allow the dye to enter the cells. Compounds were serially diluted in DMSO and then diluted to 4× their final concentration with Ringer's buffer. The compounds were added to a 384 well plate in quadruplicate. In addition to test compounds, several wells contained Ringer's buffer with DMSO. These wells serve as control wells. 10 μL was transferred from compound/control plate to the plate containing cells loaded with dye by a fluorescent imaging plate reader (Molecular Devices). The fluorescence was measured every 4 seconds for 4 minutes. These measurements indicated the level of intracellular calcium. Increases in fluorescence relative to wells containing buffer only indicated an agonist effect of the compound. Measurement at various compound concentrations allowed one to determine the EC50 for these compounds. Following the 4 minute incubation with compound, 20 μL of Ringer's buffer with either 10 nM or 500 nM PGD2 (approximate EC75 for PGD2 in HEK 293EBNA-hCRTH2 cells and HT1080-hCRTH2 cells, respectively) was added to the wells. Inhibition by the compounds of the calcium response due to antagonism of PGD2 action on CRTH2 is reflected by a decrease in fluorescent signal relative to wells containing no compound. The fluorescence was measured every 2 seconds for 10 seconds before addition of PGD2 and every 2 seconds for 110 seconds following addition. Measurement at various compound concentrations allowed one to determine the IC50 for the compounds. EC50 and IC50 values were determined from the experimental results by nonlinear regression using the Prism 4.0 software.

Consider `CCCc1nc2cc(N(Cc3ccc(Cl)cc3)S(=O)(=O)c3ccc(F)cc3)ccc2n1CC(=O)O` [Example 43, {5-[(4-Chloro-benzyl)-(4-fluoro-benzenesulfonyl)-amino]-2-propyl-benzoimidazol-1-yl}-acetic acid], for which the Ki on human CRTH2 [1] is below 100 nM. In addition, at human CRTH2 [2], the concentration for half-maximal inhibition (IC50) came out at 51 nM.
Take `CCCc1nc2cc(N(C3CCCCC3)S(=O)(=O)c3ccc(F)cc3)ccc2n1CC(=O)O` [Example 46, {5-[(Cyclohexyl)-(4-fluoro-benzenesulfonyl)-amino]-2-propyl-benzoimidazol-1-yl}-acetic acid]: the inhibition constant (Ki) at human CRTH2 [1] was below 1000 nM. Further, the IC50 on human CRTH2 [2] amounted to 375 nM.
With `CCCc1nc2cc(N(CCOc3ccc(Cl)cc3)S(=O)(=O)c3ccc(F)cc3)ccc2n1CC(=O)O` [Example 47, {5-[[2-(4-Chloro-phenoxy)-ethyl]-(4-fluoro-benzenesulfonyl)-amino]-2-propyl-benzoimidazol-1-yl}-acetic acid], the Ki at human CRTH2 [1] is below 100 nM. Further, the concentration for half-maximal inhibition (IC50) on human CRTH2 [2] is 22 nM.
As for `CCCc1nc2cc(N(CCCOc3ccccc3)S(=O)(=O)c3ccc(F)cc3)ccc2n1CC(=O)O` [Example 49, {5-[(4-Fluoro-benzenesulfonyl)-(3-phenoxy-propyl)-amino]-2-propyl-benzoimidazol-1-yl}-acetic acid], the Ki at human CRTH2 [1] was below 100 nM. On human CRTH2 [2], the half-inhibitory concentration (IC50) was found to be 47 nM.
With `CCCc1nc2cc(N(Cc3ccccc3)C(=O)c3cccs3)ccc2n1CC(=O)O` [Example 70, {5-[Benzyl-(thiophene-2-carbonyl)-amino]-2-propyl-benzoimidazol-1-yl}-acetic acid], the inhibition constant Ki at human CRTH2 [1] is below 100 nM. For the same molecule, the IC50 at human CRTH2 [2] came out at 7 nM.
Turning to `CCCCC[C@H](O)/C=C/[C@H]1C(=O)C[C@H](O)[C@@H]1C/C=C\CCCC(=O)O` [PGD2, prostaglandin D2, reference compound], the “approximate EC75 for PGD2” value at human CRTH2 [2] (HEK 293EBNA-hCRTH2 cells) is around 10 nM; at human CRTH2 [2] (HT1080-hCRTH2 cells), around 500 nM.
